Test results taken from PMC5054363 (Scientific Reports, 2016).
Entries after “also recorded” stand apart in the source; their conditions may differ. *1 amine or outer side, *2 acyl side, *3 side chain or, on linkers, in order; H or OH if unused. Where a SMILES comes first, the peptide text is derived from it. Bridges are numbered along the chain shown (N, C = ends). [ ]: non-standard residue; d: D form. The star is where a group is joined. X1 = CC[C@H](C)[C@@H](N[*:1])[C@@H](O)CC(=O)O[C@H](C(=O)[C@H](C)C(=O)[*:2])C(C)C; NMeY = CN[C@@H](Cc1ccc(O)cc1)C(=O)O; dNMeL = CN[C@H](CC(C)C)C(=O)O; Pyruvoyl = CC(=O)C(=O)*

Key:
[1] = system: sphingosine kinase-1 (SK1); assay: Direct effect on SK1; format: biochemical; conditions: preliminary, data not shown
[2] = system: signaling in HeLa cells overexpressing eEF1A2-GFP; assay: Signaling (Western blot) in HeLa overexpressing eEF1A2-GFP; format: cell-based, human; conditions: plitidepsin 450 nM
Protocol: (§1) (A) HeLa and HeLa-APL-R cells were stably transfected with an expression vector encoding for eEF1A2-GFP fusion protein. Clones homogeneously expressing the GFP were selected. The levels of expression of eEF1A2 were analyzed by Western blot using specific antibodies. The position of the endogenous and the GFP-fusion proteins are indicated. […] Levels of expression attained after transfection were similar to the endogenous levels. […] Concentration-response curves were performed at 72 h. Cell growth was determined by the MTT method and expressed as percentage of control cell survival.
(§2) For transfection and selection of cell clones, HeLa and HeLa-APL-R cells were seeded in 24 well plates at 40% confluence and allowed to stand for 24 hours at 37 °C and 5% CO2. Before transfection, the culture medium was changed to Opti-MEM (Life Technologies, Carlsbad, CA, USA). Plasmids encoding eEF1A2-GFP were incubated with Lipofectamine (Life Technologies, Carlsbad, CA, USA) under the recommendations of the manufacturer and added to the cell medium. After 24 h incubation at 37 °C and 5% CO2, the culture medium was replaced by the standard DMEM supplemented with 2 mg/ml of G-418 for the selection of clones expressing the exogenous gene. Clones were further selected following the expression of the GFP-fused protein through fluorescence microscopy.

[3] = two different COMPARE analyses, no reference given; cited from earlier work
Source text: (§3) Plitidepsin (Aplidin) is a cyclic depsipeptide originally isolated from the marine tunicate Aplidium albicans. […] Plitidpesin has recently completed a pivotal phase III clinical trial for multiple myeloma (clinicaltrials.gov identifier: NCT01102426) that has shown a statistically significant 35% reduction in the risk of progression or death over the comparator (p = 0.0054). This study has met its primary endpoint. In tumor cells, the compound induces a potent oxidative stres ...

[4] = system: multiple myeloma patients; conditions: phase III, p = 0.0054, ref clinicaltrials.gov NCT01102426; cited from earlier work
Source text: as §3

[5] = system: JNK and p38 MAPK, oxidative stress in tumor cells; conditions: cited from earlier work
Source text: as §3

[6] = system: subcellular and chromatographic fractions of K-562 cell lysate; assay: Binding of [14C]-plitidepsin to K-562 lysate fractions
Protocol: Figure 4 Identification of the plitidepsin-binding protein in a K-562 cells lysate. […] In the horizontal axis “P” and “S” mean “pellet” and “supernatant”, respectively, with the figure aside denoting the relative centrifugal force (in thousands of g) used to obtain such fraction. Data (in dpm per mg of protein) represent the mean of three independent samples with error bars showing S.D. * means p < 0.05. (C) Anion-exchange chromatography on DEAE, flow rate 5 mL/min. (D) Cation-exchange chromatography on SP, flow rate 2.5 mL/min. (E) Size exclusion chromatography on Superdex 200, flow rate 4 mL/min. Representative fractions (4-mL) from each portion of the eluates were analyzed for their binding to [^14C]-plitidepsin in the presence (grey bars, non-specific binding) or absence (black bars, total binding) of a 20-fold excess of unlabeled drug. Only fractions showing significant specific binding to the radioligand were pooled and progressed to the next chromatographic step. In all cases absorbance is expressed in mAU and conductivity in mS/cm.
The rest of the peptides detected in this material corresponded to fragments whose sequences are common to both isoforms, thus discarding the presence of any other protein.
After 1 h incubation at room temperature 400 μL of each tube were withdrawn and processed as described above.

[7] = molecular target: eEF1A2 purified from rabbit muscle (Oryctolagus cuniculus, UniProt Q71V39); assay: biochemical
Chain of eEF1A2 purified from rabbit muscle (Q71V39 whole entry): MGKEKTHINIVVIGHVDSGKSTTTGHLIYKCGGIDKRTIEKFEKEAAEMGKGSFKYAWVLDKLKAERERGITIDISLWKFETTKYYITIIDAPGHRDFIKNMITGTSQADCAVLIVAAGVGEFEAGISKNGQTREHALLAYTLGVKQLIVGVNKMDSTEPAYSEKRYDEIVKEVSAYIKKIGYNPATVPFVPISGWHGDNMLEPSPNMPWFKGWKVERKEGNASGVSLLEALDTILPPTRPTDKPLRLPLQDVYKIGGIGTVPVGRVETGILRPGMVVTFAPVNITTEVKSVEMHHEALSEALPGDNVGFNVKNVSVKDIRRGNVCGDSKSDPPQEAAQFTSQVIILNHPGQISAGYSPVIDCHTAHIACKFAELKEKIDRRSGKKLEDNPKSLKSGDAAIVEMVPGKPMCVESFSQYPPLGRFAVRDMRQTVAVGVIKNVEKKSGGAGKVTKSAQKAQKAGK
Protocol: (A) Saturation binding curve. Protein and radioligand were incubated for 1 h at room temperature and samples were processed as described in the text. […] The experiment was performed as described in the text, and the experimental points were fitted to a single exponential decay equation by non-linear regression. […] Extracts were then digested with the indicated concentrations of subtilisin for 30 min at room temperature. Samples were resolved by SDS-PAGE and the degradation of eEF1A2 analyzed by Western blot; quantitation of the bands from the DARTS assay was performed with the ImageJ software.
At the selected times after this last addition, 400 μL of each sample were withdrawn and processed as above.

[8] = system: HGC27-APL-R gastric carcinoma cells (plitidepsin-resistant); assay: Cell growth inhibition (MTT, 72 h), HGC27-APL-R; format: cell-based; conditions: highest concentration tested 100 nM
[9] = system: signaling events in HeLa-APL-R cells; conditions: HeLa-APL-R versus parental HeLa; cited from earlier work
Source text: In contrast, HeLa cells ectop ...

[10] = system: NCI-H460-APL-R non-small cell lung cancer cells (plitidepsin-resistant); assay: Cell growth inhibition (MTT, 72 h), NCI-H460-APL-R; format: cell-based; conditions: highest concentration tested 100 nM
[11] = system: eEF1A2 in HeLa protein extract; assay: DARTS assay (subtilisin digestion of HeLa protein extract); format: binding, human; conditions: plitidepsin 1 h, subtilisin 30 min, room temperature, Western blot
Protocol: (A) Saturation binding curve. […] (B) Dissociation kinetics of [14C]-plitidepsin from eEF1A2.
Each sample was then digested with subtilisin for 30 min at room temperature.
Protein extracts from HeLa cells were obtained by treating them with lysis buffer (see above) and kept on ice for 15 min. Cell extracts were cleared by centrifugation at 14,000 × g for 15 min at 4 °C. […] Extracts were digested with the indicated concentrations of Subtilisin (EC 3.4.21.62) for 30 min at RT. […] Quantitation of the eEF1A2 bands was performed with the Image Lab v5.2.1 software (Bio-Rad, Hercules, CA, USA).

[12] = system: NCI-H460 non-small cell lung cancer cells; assay: Cell growth inhibition (MTT, 72 h), NCI-H460; format: cell-based; conditions: parental NCI-H460, 72 h
Protocol: (§4) HeLa cervix adenocarcinoma (ATCC CCL-2), K-562 chronic myelogenous leukemia (ATCC CCL-243), NCI-H460 lung cancer (ATCC HTB-177) and HGC27 gastric cancer (ATCC CRL-2506) cells were obtained from ATCC (Manassas, VA, USA) and cultured following standard procedures. Viability assays were performed utilizing 3-(4,5-dimethylthiazol-2-yl)-2,5-diphenyltetrazolium bromide (MTT) according to methods described elsewhere[46].

[13] = system: human haploid cells with eEF1A2 knock-out; conditions: CRISPR/CAS9, versus parental cells, data not shown, results not conclusive
[14] = system: HGC27 gastric carcinoma cells; assay: Cell growth inhibition (MTT, 72 h), HGC27; format: cell-based; conditions: parental HGC27, 72 h
Protocol: as §4

[15] = system: K-562 chronic myelogenous leukemia cells; assay: Cell growth inhibition (72 h), K-562; format: cell-based; conditions: K-562, 72 h
[16] = system: HeLa-APL-R cells stably transfected with eEF1A2-GFP; assay: Antiproliferative activity in HeLa-APL-R stably transfected with eEF1A2-GFP; format: cell-based, human; conditions: 72 h, MTT
Protocol: as §1, §2

SMILES: CC[C@H](C)[C@H]1NC(=O)[C@@H](NC(=O)[C@@H](CC(C)C)N(C)C(=O)[C@@H]2CCCN2C(=O)C(C)=O)[C@@H](C)OC(=O)[C@H](Cc2ccc(OC)cc2)N(C)C(=O)[C@@H]2CCCN2C(=O)[C@H](CC(C)C)NC(=O)[C@@H](C)C(=O)[C@H](C(C)C)OC(=O)C[C@@H]1O [plitidepsin, Plitidepsin] (Pyruvoyl-P[dNMeL]T[X1]LP[NMeY](Me); ester 3-C (inferred))
- direct effect on SK1 [1]: not due to a direct effect of the drug on SK1
- alteration in the signaling elicited by plitidepsin [2]: did not show any alteration in the signaling
- similarity with other antitumor agents [3]: no similarity with any other antitumor agent
- reduction in the risk of progression or death over the comparator [4]: 35%
- activation of JNK and p38 [5]: rapid and sustained activation
- oxidative stress [5]: potent oxidative stress
- proteins detected as capable of binding plitidepsin ([6]; K-562 lysate, MALDI-TOF/TOF identification): both isoforms of eEF1A are the only proteins
- specific binding by size-exclusion peaks ([6]; Superdex 200 peaks, fourth peak eluting at 80 min, ca. 50 kDa): only the fourth one
- koff ([7]; read-out: kOFF (first-order rate constant of dissociation)): 0.0019 ± 8e-07 s⁻¹
- residence time ([7]; read-out: target residence time, from dissociation kinetics (kOFF), rabbit eEF1A2): 8.8 min
- effect on cell growth [8]: did not cause any effect on cell growth
- signaling events triggered by plitidepsin [9]: completely lost
- effect on cell growth [10]: did not cause any effect on cell growth
- protection of eEF1A2 from digestion by subtilisin [11]: protected eEF1A2 from digestion by subtilisin in a concentration-dependent manner
- IC50 [12]: 0.2 nM
- resistance of eEF1A2 knock-out cells to plitidepsin [13]: increased resistance
- IC50 [14]: 0.9 nM
- IC50 [15]: 9.35 nM
- sensitivity to plitidepsin after ectopic expression of eEF1A2 [16]: partially recovered sensitivity; also recorded: restored the sensitivity
